Molecular target: Human DAAO (Homo sapiens, UniProt P14920)
Assay: D-Amino Acid Oxidase enzyme assay (D-serine, horseradish peroxidase/Amplex Red coupled fluorescence)
Assay type: biochemical
Conditions: D-serine 5 mM, pH 7.4
Experimental: DAAO enzyme activity was measured using the substrate D-serine at its Michaelis-Menton Km of 5 mM. The rate of oxidation is measured as a rate of production of hydrogen peroxide, which was detected using the enzyme horseradish peroxidase (Sigma cat. No. P-8375). This coupled reaction uses the enzyme substrate Amplex Red (Molecular Probes), which is converted to the fluorescent reaction product, resorufin (excitation 530-560 nm; emission ˜590 nm). Although DAAO has a higher pH optimum, all reagents were prepared in 50 mM sodium phosphate buffer at pH 7.4 and inhibition curves were generated at this pH.
The final concentrations of components in 200 μl total volume per well (black clear-bottom 96-well plate, Costar) were:
(a) Horseradish peroxidase: 4 Units per mL
(d) Amplex Red reagent: 50 uM
The reactions were initiated by addition of DAAO enzyme and the fluorescence was monitored. H2O2 was added at 16 uM final concentration to a control well on each plate to test for compound interference with a coupled enzyme. Inhibition curves were generated in the presence of varying concentrations of the inhibitor and IC50 values were calculated for each inhibitor.

Human DAAO, sequence (P14920 whole entry): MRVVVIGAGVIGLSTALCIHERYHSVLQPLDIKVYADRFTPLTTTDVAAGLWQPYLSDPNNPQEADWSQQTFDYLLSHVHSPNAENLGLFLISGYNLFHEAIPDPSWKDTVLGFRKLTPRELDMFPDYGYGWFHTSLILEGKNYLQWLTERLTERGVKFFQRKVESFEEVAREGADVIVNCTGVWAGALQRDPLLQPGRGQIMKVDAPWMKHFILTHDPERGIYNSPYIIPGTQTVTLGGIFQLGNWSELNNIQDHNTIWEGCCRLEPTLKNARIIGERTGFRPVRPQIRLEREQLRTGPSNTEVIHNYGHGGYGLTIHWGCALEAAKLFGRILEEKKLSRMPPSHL

IC50, ≤ 0.1 µM:
O=C(O)c1cc2c([nH]1)CCC2c1cccc(F)c1 (racemic) [Compound 94, 4-(3-fluorophenyl)-1,4,5,6-tetrahydrocyclopenta[b]pyrrole-2-carboxylic acid]
O=C(O)c1cc2c([nH]1)CCC2c1ccc(Cl)cc1 (stereo not shown) [Compound 101, 4-(4-chlorophenyl)-1,4,5,6-tetrahydrocyclopenta[b]pyrrole-2-carboxylic acid]
C[C@H]1[C@H]2Cc3[nH]c(C(=O)O)cc3[C@@H]12 (racemic) [Compound 141, ±(1S,1aS,5aR)-1-methyl-1a,4,5,5a-tetrahydro-1H-4-aza-cyclopropa[α]pentalene-3-carboxylic acid]
Cc1cc(F)ccc1CC1CCc2[nH]c(C(=O)O)cc21 (racemic) [Compound 51, 4-(4-fluoro-2-methylbenzyl)-1,4,5,6-tetrahydrocyclopenta[b]pyrrole-2-carboxylic acid]
C#Cc1cccc(CC2CCc3[nH]c(C(=O)O)cc32)c1 (stereo not shown) [Compound 74, 4-(3-ethynylbenzyl)-1,4,5,6-tetrahydrocyclopenta[b]pyrrole-2-carboxylic acid]
O=C(O)c1cc2c([nH]1)CCC2Cc1ccc(Cl)cc1 (single isomer, unassigned) [Compound 15, 4-(4-chlorobenzyl)-1,4,5,6-tetrahydrocyclopenta[b]pyrrole-2-carboxylic acid]
O=C(O)c1cc2c([nH]1)CCC2Cc1cccc(-c2ccc[nH]2)c1 (racemic) [Compound 91, 4-(3-(1H-pyrrol-2-yl)benzyl)-1,4,5,6-tetrahydrocyclopenta[b]pyrrole-2-carboxylic acid]
COc1cccc(CC2CCc3[nH]c(C(=O)O)cc32)c1 (racemic) [Compound 66, 4-(3-methoxybenzyl)-1,4,5,6-tetrahydrocyclopenta[b]pyrrole-2-carboxylic acid]
O=C(O)c1cc2c([nH]1)CCC2Cc1ccc(Cl)cc1 (racemic) [Compound 14, 4-(4-chlorobenzyl)-1,4,5,6-tetrahydrocyclopenta[b]pyrrole-2-carboxylic acid]
O=C(O)c1cc2c([nH]1)CCC2Cc1ccccc1 (stereo not shown) [Compound 17, 4-benzyl-1,4,5,6-tetrahydrocyclopenta[b]pyrrole-2-carboxylic acid]
O=C(O)c1cc2c([nH]1)CCC2Cc1cc(F)cc(Cl)c1 (stereo not shown) [Compound 55, 4-(3-chloro-5-fluorobenzyl)-1,4,5,6-tetrahydrocyclopenta[b]pyrrole-2-carboxylic acid]
O=C(O)c1cc2c([nH]1)C(Cc1cccc(Br)c1)CC2 (racemic) [Compound 125, 6-(3-bromobenzyl)-1,4,5,6-tetrahydrocyclopenta[b]pyrrole-2-carboxylic acid]

IC50, ≤ 1 µM:
CC1CCc2cc(C(=O)O)[nH]c21 (stereo not shown) [Compound 109, 6-methyl-1,4,5,6-tetrahydrocyclopenta[b]pyrrole-2-carboxylic acid]
O=C(O)c1cc2c([nH]1)CC1CC21 (single isomer, unassigned) [Compound 139, 1a,4,5,5a-tetrahydro-1H-4-aza-cyclopropa[α]pentalene-3-carboxylic acid]
N#Cc1cccc(C2CCc3cc(C(=O)O)[nH]c32)c1 (stereo not shown) [Compound 117, 6-(3-cyanophenyl)-1,4,5,6-tetrahydrocyclopenta[b]pyrrole-2-carboxylic acid]
O=C(O)c1cc2c([nH]1)CCC2c1cc(F)cc(F)c1 (racemic) [Compound 98, 4-(3,5-difluorophenyl)-1,4,5,6-tetrahydrocyclopenta[b]pyrrole-2-carboxylic acid]
O=C(O)c1cc2c([nH]1)CCC2Cc1ccc(F)cc1 (single isomer, unassigned) [Compound 41, 4-(4-fluorobenzyl)-1,4,5,6-tetrahydrocyclopenta[b]pyrrole-2-carboxylic acid]
O=C(O)c1cc2c([nH]1)C(CCc1ccccc1)CC2 (stereo not shown) [Compound 27, 6-phenethyl-1,4,5,6-tetrahydrocyclopenta[b]pyrrole-2-carboxylic acid]
O=C(O)c1cc2c([nH]1)CCC2Cc1cccc(C2CCOC2)c1 (stereo not shown) [Compound 90, 4-(3-(tetrahydrofuran-3-yl)benzyl)-1,4,5,6-tetrahydrocyclopenta[b]pyrrole-2-carboxylic acid]
CC(C)C1CCc2[nH]c(C(=O)O)cc21 (stereo not shown) [Compound 10, 4-isopropyl-1,4,5,6-tetrahydrocyclopenta[b]pyrrole-2-carboxylic acid]
O=C(O)c1cc2c([nH]1)C(CCCc1ccccc1)CC2 (racemic) [Compound 134, 6-(3-phenylpropyl)-1,4,5,6-tetrahydrocyclopenta[b]pyrrole-2-carboxylic acid]
O=C(O)c1cc2c([nH]1)CCC2Cc1cccc(-c2ccccc2)c1 (stereo not shown) [Compound 82, 4-(biphenyl-3-ylmethyl)-1,4,5,6-tetrahydrocyclopenta[b]pyrrole-2-carboxylic acid]
CC1CCc2[nH]c(C(=O)O)cc21 (single isomer, unassigned) [Compound 5, 4-methyl-1,4,5,6-tetrahydrocyclopenta[b]pyrrole-2-carboxylic acid]
O=C(O)c1cc2c([nH]1)C(c1cccc(Br)c1)CC2 (stereo not shown) [Compound 115, 6-(3-bromophenyl)-1,4,5,6-tetrahydrocyclopenta[b]pyrrole-2-carboxylic acid]
COc1ccc(CC2CCc3[nH]c(C(=O)O)cc32)cc1OC (stereo not shown) [Compound 69, 4-(3,4-dimethoxybenzyl)-1,4,5,6-tetrahydrocyclopenta[b]pyrrole-2-carboxylic acid]
O=C(O)c1cc2c([nH]1)C(c1ccc(-c3ccccc3)cc1)CC2 (racemic) [Compound 118, 6-(biphenyl-4-yl)-1,4,5,6-tetrahydrocyclopenta[b]pyrrole-2-carboxylic acid]

IC50, ≤ 100 µM:
O=C(O)c1cc2c([nH]1)CCC2c1ccc(-c2ccccc2)cc1 (stereo not shown) [Compound 106, 4-(biphenyl-4-yl)-1,4,5,6-tetrahydrocyclopenta[b]pyrrole-2-carboxylic acid]
O=C(O)c1cc2c([nH]1)CCC2Cc1cccc(-c2ccco2)c1 (single isomer, unassigned) [Compound 88, 4-(3-(furan-2-yl)benzyl)-1,4,5,6-tetrahydrocyclopenta[b]pyrrole-2-carboxylic acid]
O=C(O)c1cc2c([nH]1)CCC2Cc1cccc(-c2ccco2)c1 (racemic) [Compound 87, 4-(3-(furan-2-yl)benzyl)-1,4,5,6-tetrahydrocyclopenta[b]pyrrole-2-carboxylic acid]
O=C(O)c1cc2c([nH]1)CCC2Cc1ccc(F)c(F)c1 (single isomer, unassigned) [Compound 43, 4-(3,4-difluorobenzyl)-1,4,5,6-tetrahydrocyclopenta[b]pyrrole-2-carboxylic acid]
CC1CCc2[nH]c(C(=O)O)cc21 (single isomer, unassigned) [Compound 6, 4-methyl-1,4,5,6-tetrahydrocyclopenta[b]pyrrole-2-carboxylic acid]
Cc1cc(F)ccc1CC1CCc2[nH]c(C(=O)O)cc21 (single isomer, unassigned) [Compound 52, 4-(4-fluoro-2-methylbenzyl)-1,4,5,6-tetrahydrocyclopenta[b]pyrrole-2-carboxylic acid]
O=C(O)c1cc2c([nH]1)CCC2Cc1ccc(Cl)cc1 (single isomer, unassigned) [Compound 16, 4-(4-chlorobenzyl)-1,4,5,6-tetrahydrocyclopenta[b]pyrrole-2-carboxylic acid]
O=C(O)c1cc2c([nH]1)C(CCc1ccccc1)CC2 (single isomer, unassigned) [Compound 29, 6-phenethyl-1,4,5,6-tetrahydrocyclopenta[b]pyrrole-2-carboxylic acid]
O=C(O)c1[nH]c2c(c1Br)[C@H]1C[C@H]1C2 [Compound 145, (1aS,5aS)-1a,4,5,5a-tetrahydro-1H-2-bromo-4-aza-cyclopropa[α]pentalene-3-carboxylic acid]
O=C(O)c1cc2c([nH]1)CCC2=O [Compound 2, 4-oxo-1,4,5,6-tetrahydrocyclopenta[b]pyrrole-2-carboxylic acid]
O=C(O)c1cc2c([nH]1)C[C@@H]1[C@@H](c3ccccc3)[C@H]21 (racemic) [Compound 144, ±(1R,1aR,5aR)-1-phenyl-1a,4,5,5a-tetrahydro-1H-4-aza-cyclopropa[α]pentalene-3-carboxylic acid]
CCCC1CCc2[nH]c(C(=O)O)cc21 (single isomer, unassigned) [Compound 9, 4-propyl-1,4,5,6-tetrahydrocyclopenta[b]pyrrole-2-carboxylic acid]
O=C(O)c1cc2c([nH]1)CCC2Cc1cccc(-c2ccc(O)cc2)c1 (stereo not shown) [Compound 85, 4-((4′-hydroxybiphenyl-3-yl)methyl)-1,4,5,6-tetrahydrocyclopenta[b]pyrrole-2-carboxylic acid]
COc1ccc(CCC2CCc3[nH]c(C(=O)O)cc32)cc1 (stereo not shown) [Compound 34, 4-(4-methoxyphenethyl)-1,4,5,6-tetrahydrocyclopenta[b]pyrrole-2-carboxylic acid]

Source: US7902252B2, “Inhibitors of D-amino acid oxidase” (Sepracor, Inc., priority 2007, dated 2011)
